Converted amounts (≈) assume the structure as drawn.
What was measured:
Details in all cases: Homo sapiens
[1] = system: HeLa; experiment: Cytotoxicity against HeLa cells; assay type: functional
[2] = system: HeLa; experiment: Compound was evaluated for its inhibitory effect on the replication of Coxsackie virus B3 (Cox. B3) in HeLa cells; assay type: functional, cell-based
[3] = system: HeLa; experiment: Compound was evaluated for its inhibitory effect on the replication of encephalomyocarditis virus (EMCV) in HeLa cells; assay type: functional, cell-based
[4] = system: HeLa; experiment: Compound was evaluated for its inhibitory effect on the replication of vesicular stomatitis virus (VSV) in HeLa cells; assay type: functional, cell-based
[5] = system: MT4; experiment: Compound was evaluated for its inhibitory effect on the replication of HIV-1(IIIB) in MT-4 cells; assay type: functional, cell-based
[6] = system: MT4; experiment: Compound was evaluated for its inhibitory effect on the replication of HIV-2 (ROD) in MT-4 cells; assay type: functional, cell-based
[7] = system: MT4; experiment: Cytotoxicity against MT-4 cells; assay type: functional

SMILES | CC50 [1] [µg/mL] | EC50 [2] [µg/mL] | EC50 [3] [µg/mL] | EC50 [4] [µg/mL] | EC50 [5] [µg/mL] | EC50 [6] [µg/mL] | CC50 [7] [µg/mL]
NC(=O)c1ncn([C@@H]2O[C@H](CO)[C@@H](O)[C@H]2O)n1 [RIBAVIRIN] | 300 (≈ 1230 µM) | 181 (≈ 743 µM) | 20.9 (≈ 85.7 µM) | 14.4 (≈ 59 µM) | – | – | –
Cc1cn(C2CC3COCC3(CO)O2)c(=O)[nH]c1=O (stereo unspecified) | 4.11 (≈ 15.3 µM) | > 4.11 | > 4.11 | 3.45 (≈ 12.9 µM) | > 100 | > 100 | < 0.8
Cc1cn(C2OC3(CO)COCC3C2O)c(=O)[nH]c1=O (stereo unspecified) | 100 (≈ 352 µM) | 100 (≈ 352 µM) | 100 (≈ 352 µM) | 100 (≈ 352 µM) | 95.8 (≈ 337 µM) | > 0.54 | 0.54 (≈ 1.9 µM)
Cc1cn([C@H]2C[C@H](N=[N+]=[N-])[C@@H](CO)O2)c(=O)[nH]c1=O [ZIDOVUDINE] | – | – | – | – | 0.0012 (≈ 0.00449 µM) | 0.01 (≈ 0.0374 µM) | 1.64 (≈ 6.14 µM)

From ChEMBL document CHEMBL1136289, “Synthesis and biological evaluation of thymine nucleosides fused with 3',4'-tetrahydrofuran ring” (Bioorg Med Chem Lett, 2003)
